Measurements reported in patent US10287267B2, “Isoquinolin-3-yl carboxamides and preparation and use thereof” (Samumed, LLC, priority 2016, dated 2019).

Legend:
[1] = tested on: Wnt pathway (Sp5-Luc reporter, TCF/LEF binding sites) in SW480 colon carcinoma cells; assay: Screening assay for Wnt activity: Sp5-Luc reporter gene assay; type: cell-based, human; settings: Homo sapiens; for EC50: Sp5-Luc reporter, SW480 cells, 36 to 48 hours; for inhibition at 10 µM: SW480, read-out: percent inhibition at 10 μM;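 on all read-outs here: firefly luciferase luminescence read in stably transduced SW480 cells carrying the Sp5 promoter reporter with eight TCF/LEF sites, compounds given in 0.1% DMSO final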
Experimental: The screening assay for Wnt activity is described as follows.
Following incubation, 15 μl of BriteLite Plus luminescence reagent (Perkin Elmer) was added to each well of the 384-well assay plates. The plates were placed on an orbital shaker for 2 min and then luminescence was quantified using the Envision (Perkin Elmer) plate reader.

[2] = target: recombinant DYRK1A kinase (Homo sapiens (Human), UniProt Q13627); assay: DYRK1A kinase assay (Ser/Thr 18 peptide Z-lyte FRET); type: biochemical; settings: 30 μM ATP, 1 h room temperature;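 further: Read-out is the coumarin to fluorescein emission ratio, referenced to unphosphorylated (0%) and phosphorylated (100%) Ser/Thr 18 peptide controls, values from dose-response curves by non-linear regression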
recombinant GSK3β kinase = recombinant GSK3β kinase (Homo sapiens (Human), UniProt P49841); assay: GSK3β kinase assay (Ser/Thr 09 peptide Z-lyte FRET); type: biochemical; settings: 46 μM ATP, 1 h room temperature;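 further: kinase activity read as coumarin to fluorescein emission ratio, 11-point threefold dilutions from 10 µM to 0.0003 µM in duplicate, unphosphorylated and phosphorylated peptide as 0% and 100% controls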
[3] = tested on: Tau phosphorylation at Ser396 (pSer396); assay: Tau phosphorylation assay (pSer396 ELISA / western blot) in SH-SY5Y cells; type: cell-based, human; settings: Homo sapiens; SH-SY5Y cells, overnight (16-18 h) exposure; read-out: pSer396 Tau EC50;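 further: EC50 for reduction of Tau pSer396 in lysed cells, measured by colorimetric ELISA or chemiluminescent western blot, both using the same pSer396 antibody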
[4] = tested on: SW480 colon carcinoma cells; assay: Cell viability assay (CellTiter-Glo); type: cell-based, human; settings: Homo sapiens; for EC50: 96 h, SW480 cells, CellTiter-Glo, four days incubation; for inhibition at 10 µM: SW480, read-out: percent inhibition at 10 μM
[5] = tested on: α-smooth muscle actin (αSMA) positive LL29 cells; assay: Inhibition of fibrotic process: αSMA in TGF-β1 treated primary human fibroblasts from IPF patients; type: cell-based; settings: Homo sapiens, Fibroblast; for EC50: 96 h, Table 8, LL29 fibroblasts from IPF patients, TGF-β1 20 ng/mL, 4 days, dose-response 10 μM to 0.94 nM; for inhibition at 10 µM: read-out: percent value in parentheses beside EC50 >10 μM;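 on all read-outs here: controls were TGF-β1 stimulated wells with DMSO vehicle (positive) and cells given DMSO alone (negative), cultured in F12 medium with 1% fetal bovine serum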
IL-6 = IL-6 inhibition in LPS-stimulated human peripheral blood mononuclear cells (HTRF); type: cell-based; settings: Homo sapiens, PBMC; for EC50: Table 9, huPBMCs, LPS 50 ng/mL, 22 hours, dose-response starting from 10 μM; for inhibition at 10 µM: read-out: percent value in parentheses beside EC50 >10 μM;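 on all read-outs here: IL-6 detected by HTRF with an XL665- and Cryptate-labelled anti-IL-6 antibody pair, samples run in duplicate, EC50 obtained from a four-parameter Levenberg-Marquardt curve fit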
Experimental: After 22 hour incubation, a mixture of anti-IL6 XL665 and anti-IL-6 Cryptate diluted in reconstitution buffer (Catalog #62IL6PEC, Cisbio Inc., Bedford, Mass.) was added to each well. […] All samples were processed in duplicate. […] EC50 was determined using software generated by Dotmatics Limited (Windhill Bishops Stortford Herts, UK) using the Levenberg-Marquardt 4 parameter fitting procedure with finite different gradients.

Chain of recombinant GSK3β kinase (P49841 whole entry): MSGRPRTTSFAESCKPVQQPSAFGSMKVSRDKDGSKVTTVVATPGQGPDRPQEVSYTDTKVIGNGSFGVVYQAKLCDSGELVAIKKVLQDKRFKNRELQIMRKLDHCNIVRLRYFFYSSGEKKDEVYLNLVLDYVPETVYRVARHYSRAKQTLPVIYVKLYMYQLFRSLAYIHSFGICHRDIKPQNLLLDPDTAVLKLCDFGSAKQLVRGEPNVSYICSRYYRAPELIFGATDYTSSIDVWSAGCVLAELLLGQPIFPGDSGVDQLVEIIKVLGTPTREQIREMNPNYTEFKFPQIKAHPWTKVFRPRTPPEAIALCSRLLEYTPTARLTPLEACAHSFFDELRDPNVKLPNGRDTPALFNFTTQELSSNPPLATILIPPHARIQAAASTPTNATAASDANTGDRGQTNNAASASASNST

SMILES	EC50 [1]	EC50 [2]	EC50 (recombinant GSK3β kinase)	EC50 [3]	EC50 [4]	EC50 [5]	EC50 (IL-6)	inhibition at 10 µM [5]	inhibition at 10 µM (IL-6)	inhibition at 10 µM [4]	inhibition at 10 µM [1]
Cn1cc(-c2ccc3cnc(NC(=O)C4CCC(F)(F)CC4)cc3c2)cn1 [Compound 3, 4,4-Difluoro-N-(6-(1-methyl-1H-pyrazol-4-yl)isoquinolin-3-yl) cyclohexanecarboxamide]	1.7 µM	0.0037 µM	0.038 µM	0.288 µM	2.8 µM	0.103 µM	0.792 µM				
CO[C@H]1CC[C@H](C(=O)Nc2cc3cc(-c4cnn(C)c4)ccc3cn2)CC1 [Compound 4, trans-4-Methoxy-N-(6-(1-methyl-1H-pyrazol-4-yl)isoquinolin-3-yl) cyclohexane-1-carboxamide]	0.983 µM	0.0018 µM	0.08 µM	0.671 µM	1.94 µM	0.068 µM	1.13 µM				
Cn1cc(-c2ccc3cnc(NC(=O)[C@H]4CC[C@H](N5CCOCC5)CC4)cc3c2)cn1 [Compound 6, trans-N-(6-(1-Methyl-1H-pyrazol-4-yl)isoquinolin-3-yl)-4-morpholinocyclohexane-1-carboxamide]	1.11 µM	0.0013 µM	0.065 µM	0.475 µM	1.26 µM	> 10 µM	1.29 µM	45.6%			
Cn1cc(-c2ccc3cnc(NC(=O)[C@H]4CC[C@H](CN5CC(F)C5)CC4)cc3c2)cn1 [Compound 10, trans-4-((3-Fluoroazetidin-1-yl)methyl)-N-(6-(1-methyl-1H-pyrazol-4-yl)isoquinolin-3-yl)cyclohexane-1-carboxamide]	0.277 µM	0.0013 µM	0.051 µM	0.227 µM	0.324 µM	> 10 µM	0.399 µM	39.6%			
CN1CCN(C[C@H]2CC[C@H](C(=O)Nc3cc4cc(-c5cnn(C)c5)ccc4cn3)CC2)CC1 [Compound 14, trans-N-(6-(1-Methyl-1H-pyrazol-4-yl)isoquinolin-3-yl)-4-((4-methylpiperazin-1-yl)methyl)cyclohexane-1-carboxamide]	0.354 µM	0.0015 µM	0.059 µM	0.408 µM	0.898 µM	0.035 µM	0.643 µM				
Cn1cc(-c2ccc3cnc(NC(=O)CN4CCC(C(F)F)CC4)cc3c2)cn1 [Compound 295, 2-(4-(Difluoromethyl)piperidin-1-yl)-N-(6-(1-methyl-1H-pyrazol-4-yl)isoquinolin-3-yl)acetamide]	2.57 µM	0.0028 µM	0.02 µM	0.43 µM		4.46 µM	> 10 µM		5.9%		
O=C(Nc1cc2cc(-c3cnco3)ccc2cn1)C1CCOCC1 [Compound 976, N-(6-(Oxazol-5-yl)isoquinolin-3-yl)tetrahydro-2H-pyran-4-carboxamide]	2.96 µM	0.0061 µM	0.146 µM	0.536 µM	3.88 µM	1.17 µM					
Cn1cc(-c2ccc3cnc(NC(=O)OC(C)(C)C)cc3c2)cn1 [Compound 1025, tert-Butyl (6-(1-methyl-1H-pyrazol-4-yl)isoquinolin-3-yl)carbamate]	> 10 µM	0.078 µM	0.1 µM	> 10 µM		> 10 µM	> 10 µM	31.4%	13.6%		
CCN(CC)c1ncc(-c2ccc3cnc(NC(=O)CN4CCN(C)CC4)cc3c2)s1 [Compound 1048, N-(6-(2-(Diethylamino)thiazol-5-yl)isoquinolin-3-yl)-2-(4-methylpiperazin-1-yl)acetamide]	9.38 µM	0.541 µM	5.81 µM	4.7 µM	4.06 µM		> 10 µM		4.3%		
Cc1nnc(-c2ccc3cnc(NC(=O)CN4CCCOCC4)cc3c2)s1 [Compound 1049, N-(6-(5-Methyl-1,3,4-thiadiazol-2-yl)isoquinolin-3-yl)-2-(1,4-oxazepan-4-yl) acetamide]	2.54 µM	0.0069 µM	0.012 µM	0.319 µM	> 10 µM		> 10 µM		10.4%	31.3%	
CC(F)(F)CN1CCC(C(=O)Nc2cc3cc(-c4cnco4)ccc3cn2)CC1 [Compound 1057, 1-(2,2-Difluoropropyl)-N-(6-(oxazol-5-yl)isoquinolin-3-yl)piperidine-4-carboxamide]	> 10 µM	0.0027 µM	0.097 µM	0.342 µM	4.5 µM		3.2 µM				5%
Cc1ncc(-c2ccc3cnc(NC(=O)[C@H]4C[C@H](N5CCOCC5)C4)cc3c2)o1 [Compound 1061, trans-N-(6-(2-Methyloxazol-5-yl)isoquinolin-3-yl)-3-morpholinocyclobutane-1-carboxamide]	1.61 µM	0.0043 µM	0.008 µM	0.058 µM	1.59 µM		0.947 µM				
Cc1ncc(-c2ccc3cnc(NC(=O)CN4CCOCC4)cc3c2)o1 [Compound 1067, N-(6-(2-Methyloxazol-5-yl)isoquinolin-3-yl)-2-morpholinoacetamide]	> 10 µM	0.0188 µM	0.067 µM	0.729 µM	> 10 µM		8.94 µM			43.1%	48.7%
Cc1ncc(-c2ccc3cnc(NC(=O)CCN4CCOCC4)cc3c2)o1 [Compound 1068, N-(6-(2-Methyloxazol-5-yl)isoquinolin-3-yl)-3-morpholinopropanamide]	3.72 µM	0.0053 µM	0.036 µM	0.689 µM	> 10 µM		3.4 µM			46%	
CN(C)c1nnc(-c2ccc3cnc(NC(=O)C4CCNCC4)cc3c2)o1 [Compound 1075, N-(6-(5-(Dimethylamino)-1,3,4-oxadiazol-2-yl)isoquinolin-3-yl)piperidine-4-carboxamide]	2.54 µM	0.0137 µM	0.015 µM	0.709 µM	5.28 µM		3.27 µM				
COC1CCN(CC(=O)Nc2cc3cc(-c4cnn(C)c4)ccc3cn2)CC1 [Compound 1077, 2-(4-Methoxypiperidin-1-yl)-N-(6-(1-methyl-1H-pyrazol-4-yl)isoquinolin-3-yl)acetamide]	5.19 µM	0.0045 µM	0.032 µM	0.425 µM	5.25 µM		3.17 µM				
Cn1cc(-c2ccc3cnc(NC(=O)CN4CCC(O)CC4)cc3c2)cn1 [Compound 1078, 2-(4-Hydroxypiperidin-1-yl)-N-(6-(1-methyl-1H-pyrazol-4-yl)isoquinolin-3-yl)acetamide]	4.03 µM	0.006 µM	0.07 µM	0.458 µM	4.41 µM		3.24 µM				
CC(C)CN1CCCC(C(=O)Nc2cc3cc(-c4cnn(C)c4)ccc3cn2)CC1 (centres unmarked) [Compound 1079, 1-Isobutyl-N-(6-(1-methyl-1H-pyrazol-4-yl)isoquinolin-3-yl)azepane-4-carboxamide]	1.43 µM	0.0057 µM	0.048 µM	0.19 µM	2.6 µM		1.21 µM				
CN1CCCC(C(=O)Nc2cc3cc(-c4cnn(C)c4)ccc3cn2)CC1 (centres unmarked) [Compound 1080, 1-Methyl-N-(6-(1-methyl-1H-pyrazol-4-yl)isoquinolin-3-yl)azepane-4-carboxamide]	1.22 µM	0.0032 µM	0.056 µM	0.251 µM	1.38 µM		1.07 µM				
Cc1ncc(-c2ccc3cnc(NC(=O)[C@H]4CC[C@H](N(C)C)CC4)cc3c2)o1 [Compound 1082, trans-4-(Dimethylamino)-N-(6-(2-methyloxazol-5-yl)isoquinolin-3-yl) cyclohexane-1-carboxamide]	9.9 µM	0.0102 µM	0.21 µM	1.1 µM	7.1 µM		2.93 µM				
CN1CCN(CC23CC(C(=O)Nc4cc5cc(-c6cnn(C)c6)ccc5cn4)(C2)C3)CC1 [Compound 1088, N-(6-(1-Methyl-1H-pyrazol-4-yl)isoquinolin-3-yl)-3-((4-methylpiperazin-1-yl)methyl)bicyclo[1.1.1]pentane-1-carboxamide]	7.4 µM	0.0093 µM	0.937 µM	8.6 µM	9.19 µM		5.98 µM				
CN1CCC(NC(=O)Nc2cc3cc(-c4cnn(C)c4)ccc3cn2)CC1 [Compound 1090, 1-(6-(1-Methyl-1H-pyrazol-4-yl)isoquinolin-3-yl)-3-(1-methylpiperidin-4-yl)urea]	0.722 µM	0.0069 µM	0.288 µM	0.969 µM	0.994 µM		0.484 µM				
